Earlier results as cited in patent US20210379059A1, “COMBINATION OF SUBSTANCES FOR REGENERATIVE THERAPY IN PATIENTS WITH TYPE 1 DIABETES MELLITUS” (Levicure Ltd., priority 2018, published 2021).
Where two headings read alike, the source gives them in different places.

Tests used:
[1] = system: β-cells; settings: mouse cell cultures
[2] = system: β-cells; settings: human cell cultures
[3] = system: adult patients with type 1 diabetes; settings: 8 weeks, despite a reduction of total and lunch dose of insulin

**Q.** With `NCCCC(=O)O` [GABA, gamma-aminobutyric acid] as the compound, how does the “regeneration of β-cells” value [1] read?
**A.** Its value is “provide the regeneration of β-cells”.

**Q.** And the “regeneration of β-cells” value [2]?
**A.** The value was “provide the regeneration of β-cells”.

**Q.** For `N[C@@H](CC(=O)N1CCn2c(nnc2C(F)(F)F)C1)Cc1cc(F)c(F)cc1F` [Sitagliptin], which blood glucose levels [3] is on record?
**A.** The blood glucose levels was “significantly reduced”.
